Patent US20110097264A1, “RADIOLABELING METHOD USING MULTIVALENT GLYCOLIGANDS AS HEPATIC RECEPTOR IMAGING AGENT” (Institute of Nuclear Energy Research Atomic Energy Council, …, priority 2009, published 2011)

Molecular target: T1, ASGPR (Mus musculus, UniProt P24721+P34927)
T1 construct: host or cells: murine hepatocytes (primary, plated)
T1 sequence (P34927 1-284): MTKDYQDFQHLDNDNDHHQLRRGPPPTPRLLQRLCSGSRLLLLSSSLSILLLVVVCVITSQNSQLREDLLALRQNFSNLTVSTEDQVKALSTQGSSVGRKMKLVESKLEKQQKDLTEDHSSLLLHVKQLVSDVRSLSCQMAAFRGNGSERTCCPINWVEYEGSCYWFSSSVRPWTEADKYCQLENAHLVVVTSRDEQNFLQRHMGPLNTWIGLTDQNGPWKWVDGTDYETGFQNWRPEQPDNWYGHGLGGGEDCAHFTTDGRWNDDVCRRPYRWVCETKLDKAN
T1 sequence (P24721 1-301): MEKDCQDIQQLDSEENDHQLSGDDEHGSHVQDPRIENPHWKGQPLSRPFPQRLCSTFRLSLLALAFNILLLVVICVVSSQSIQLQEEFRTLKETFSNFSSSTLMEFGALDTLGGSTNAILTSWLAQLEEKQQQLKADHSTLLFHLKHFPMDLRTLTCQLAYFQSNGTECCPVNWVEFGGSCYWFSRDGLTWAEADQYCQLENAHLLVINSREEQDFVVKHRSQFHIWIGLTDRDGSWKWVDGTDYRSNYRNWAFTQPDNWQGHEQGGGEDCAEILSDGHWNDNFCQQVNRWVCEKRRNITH
Test: Binding strength of saccharide chain peptide and murine hepatocyte (competition with Eu-ASOR, time-resolved fluorescence)
Settings: for IC50: murine hepatocyte, Eu-ASOR 10 nM, 5 mM calcium chloride, 1 hr
Description: With Eu-asialo-orosomucoid (Eu-ASOR) as reference material, the binding strength of saccharide chain peptide and murine hepatocyte is determined by comparing whether the binding degree of saccharide chain peptides, such as DCM-Lys(ah-GalNAc)3, DCM-Lys(Gah-GalNAc)3, DCM-Lys(ah-Lac)3, AHA-Asp[DCM-Lys(ah-Lac)3]2 with murine hepatocyte is higher than that of Eu-ASOR or not, in which the binding degree is expressed by IC50 (concentration of 50% inhibition), and the lower the IC50 is, the higher the binding degree is. The murine hepatocyte (from Lonza Biotechnology Company, Maryland) is plated in a 24-well plate in advance, and the reaction occurs in each well, into which (i) Eu-ASOR 10 nM (ii) hepatocyte basic medium with 5 mM calcium chloride, and (iii) five different concentrations of saccharide chain peptide of 1 uM-0.8 nM are added. After culturing under shaking for 1 hr, the substance that has not been bound to hepatocyte is removed by washing with the hepatocyte basic medium containing calcium chloride. Time-resolved fluorescence spectroscopy is preformed, that is, an enhancement solution (15
uM β-naphthoyl trifluoroacetone, 50 uM tri-n-octyl-phosphine oxide, 0.1 M potassium hydrogen phthalate, 0.1% Triton X-100 in 0.1 M acetic acid, pH 3.2) is added. The enhancement solution reacts with Eu^3+ to form a Eu chelate, which can emit a light of 615 nm when being excited at 340 nm. With the logarithm of the concentration of saccharide chain peptide as X axis, the emitted fluorescence value as Y axis, the fluorescence value without adding glycopeptide being set as 100%, the IC50 of each saccharide chain peptide can be calculated accordingly.

Row | Structure (SMILES) | IC50 | binding with ASGPR relative to YEE or YDD (compared with YEE or YDD, from Table 1)
1 | NCCCCCC(=O)N[C@@H](CC(=O)NCCCC[C@@H](C(=O)NCCCCCCOC1O[C@H](CO)[C@@H](O[C@@H]2O[C@H](CO)[C@H](O)[C@H](O)[C@H]2O)[C@H](O)[C@H]1O)N(CC(=O)NCCCCCCOC1O[C@H](CO)[C@@H](O[C@@H]2O[C@H](CO)[C@H](O)[C@H](O)[C@H]2O)[C@H](O)[C@H]1O)CC(=O)NCCCCCCOC1O[C@H](CO)[C@@H](O[C@@H]2O[C@H](CO)[C@H](O)[C@H](O)[C@H]2O)[C@H](O)[C@H]1O)C(=O)NCCCC[C@@H](C(=O)NCCCCCCOC1O[C@H](CO)[C@@H](O[C@@H]2O[C@H](CO)[C@H](O)[C@H](O)[C@H]2O)[C@H](O)[C@H]1O)N(CC(=O)NCCCCCCOC1O[C@H](CO)[C@@H](O[C@@H]2O[C@H](CO)[C@H](O)[C@H](O)[C@H]2O)[C@H](O)[C@H]1O)CC(=O)NCCCCCCOC1O[C@H](CO)[C@@H](O[C@@H]2O[C@H](CO)[C@H](O)[C@H](O)[C@H]2O)[C@H](O)[C@H]1O (stereo partly drawn) [AHA-Asp[DCM-Lys(ahLac)3]2, AHA-Asp[DCM-Lys(ah-Lac)3]2] | 10 nM | –
2 | CC(=O)N[C@H]1[C@H](OCCCCCCNC(=O)CNC(=O)CN(CC(=O)NCC(=O)NCCCCCCO[C@@H]2O[C@H](CO)[C@H](O)[C@H](O)[C@H]2NC(C)=O)[C@@H](CCCCN)C(=O)NCC(=O)NCCCCCCO[C@@H]2O[C@H](CO)[C@H](O)[C@H](O)[C@H]2NC(C)=O)O[C@H](CO)[C@H](O)[C@@H]1O [DCM-Lys(GahGalNAc)3] | – | 10 times
3 | CC(=O)N[C@H]1[C@H](OCCCCCCNC(=O)CC[C@H](NC(=O)[C@H](CCC(=O)NCCCCCCO[C@@H]2O[C@H](CO)[C@H](O)[C@H](O)[C@H]2NC(C)=O)NC(=O)[C@@H](N)Cc2ccc(O)cc2)C(=O)NCCCCCCO[C@@H]2O[C@H](CO)[C@H](O)[C@H](O)[C@H]2NC(C)=O)O[C@H](CO)[C@H](O)[C@@H]1O [YEE(ahGalNAc)3, reference compound] | 10 nM | –
